Results taken from ChEMBL document CHEMBL3792284, “Synthesis of triazoloquinazolinone based compounds as tubulin polymerization inhibitors and vascular disrupting agents” (Eur J Med Chem, 2016).

Key:
HUVEC [1] = assay: Cytotoxicity against HUVEC at 1 uM after 72 hrs by MTS assay; format: cell-based; settings: human
[2] = Growth inhibition of human NCI-ADR-RES cells after 48 hrs by sulforhodamine B assay; format: functional
NCI-H522 [3] = assay: Growth inhibition of human NCI-H522 cells after 48 hrs by sulforhodamine B assay; format: functional; settings: NCI-H522, 48 h
[4] = Cytotoxicity against human HL-60(TB) cells assessed as cell growth at 10 uM after 48 hrs by sulforhodamine B assay; format: functional; settings: HL-60, 48 h, read-out: Activity
MCF7 [5] = assay: Growth inhibition of human MCF7 cells after 48 hrs by sulforhodamine B assay; format: functional; settings: MCF7, 48 h
K562 [6] = assay: Growth inhibition of human K562 cells after 48 hrs by sulforhodamine B assay; format: functional; settings: K562, 48 h
NCI-H522 [7] = assay: Cytotoxicity against human NCI-H522 cells assessed as cell growth at 10 uM after 48 hrs by sulforhodamine B assay; format: functional; settings: NCI-H522, 48 h, read-out: Activity
MDA-MB-435 [8] = assay: Growth inhibition of human MDA-MB-435 cells after 48 hrs by sulforhodamine B assay; format: functional; settings: MDA-MB-435, 48 h
[9] = Growth inhibition of human PC3 cells at 10 uM after 48 hrs by sulforhodamine B assay; format: functional; settings: PC-3, 48 h, read-out: GI
[10] = Growth inhibition of human HL-60(TB) cells after 48 hrs by sulforhodamine B assay; format: functional; settings: HL-60, 48 h
K562 [11] = assay: Growth inhibition of human K562 cells at 10 uM after 48 hrs by sulforhodamine B assay; format: functional; settings: K562, 48 h, read-out: GI
[12] = Growth inhibition of human OVCAR3 cells after 48 hrs by sulforhodamine B assay; format: functional; settings: OVCAR-3, 48 h
[13] = Growth inhibition of human Caki1 cells after 48 hrs by sulforhodamine B assay; format: functional; settings: CAKI-1, 48 h
[14] = Growth inhibition of human SNB75 cells after 48 hrs by sulforhodamine B assay; format: functional; settings: SNB-75, 48 h
HUVEC [15] = assay: Antiangiogenic activity in HUVEC assessed as disruption of capillaries after 6 hrs by inverted microscopic analysis; format: functional, cell-based; settings: Homo sapiens
SR = assay: Growth inhibition of human SR cells after 48 hrs by sulforhodamine B assay; format: functional
[16] = Growth inhibition of human OVCAR3 cells at 10 uM after 48 hrs by sulforhodamine B assay; format: functional; settings: OVCAR-3, 48 h, read-out: GI
MDA-MB-468 [17] = assay: Growth inhibition of human MDA-MB-468 cells after 48 hrs by sulforhodamine B assay; format: functional; settings: MDA-MB-468, 48 h
HUVEC [18] = assay: Inhibition of cell invasion of HUVEC at 0.01 uM after 24 hrs by crystal violet staining based Boyden chamber assay; format: functional; settings: Homo sapiens
[19] = Growth inhibition of human COLO205 cells at 10 uM after 48 hrs by sulforhodamine B assay; format: functional; settings: COLO 205, 48 h, read-out: GI
HT-29 [20] = assay: Growth inhibition of human HT-29 cells after 48 hrs by sulforhodamine B assay; format: functional; settings: HT-29, 48 h
MDA-MB-435 [21] = assay: Growth inhibition of human MDA-MB-435 cells at 10 uM after 48 hrs by sulforhodamine B assay; format: functional; settings: MDA-MB-435, 48 h, read-out: GI
Tubulin = Tubulin (Bos taurus, UniProt Q6B856+Q862L2+Q862F3); assay: Inhibition of bovine tubulin polymerization after 1 hr by fluorescence spectrometry; format: protein assay
[22] = Growth inhibition of human HCT15 cells at 10 uM after 48 hrs by sulforhodamine B assay; format: functional; settings: HCT-15, 48 h, read-out: GI
A498 [23] = assay: Growth inhibition of human A498 cells at 10 uM after 48 hrs by sulforhodamine B assay; format: functional; settings: A498, 48 h, read-out: GI
SK-MEL-5 = assay: Growth inhibition of human SK-MEL-5 cells at 10 uM after 48 hrs by sulforhodamine B assay; format: functional; settings: SK-MEL-5, 48 h, read-out: GI
MCF7 [24] = assay: Growth inhibition of human MCF7 cells at 10 uM after 48 hrs by sulforhodamine B assay; format: functional; settings: MCF7, 48 h, read-out: GI
[25] = Cytotoxicity against human OVCAR3 cells assessed as cell growth at 10 uM after 48 hrs by sulforhodamine B assay; format: functional; settings: OVCAR-3, 48 h, read-out: Activity
[26] = Growth inhibition of human NCI-ADR-RES cells at 10 uM after 48 hrs by sulforhodamine B assay; format: functional; settings: read-out: GI
U-251 [27] = assay: Growth inhibition of human U251 cells at 10 uM after 48 hrs by sulforhodamine B assay; format: functional; settings: U-251, 48 h, read-out: GI
[28] = Growth inhibition of human HCT116 cells at 10 uM after 48 hrs by sulforhodamine B assay; format: functional; settings: HCT-116, 48 h, read-out: GI
[29] = Growth inhibition of human Caki1 cells at 10 uM after 48 hrs by sulforhodamine B assay; format: functional; settings: CAKI-1, 48 h, read-out: GI
U-251 [30] = assay: Growth inhibition of human U251 cells after 48 hrs by sulforhodamine B assay; format: functional; settings: U-251, 48 h
NCI-H522 [31] = assay: Growth inhibition of human NCI-H522 cells at 10 uM after 48 hrs by sulforhodamine B assay; format: functional; settings: NCI-H522, 48 h, read-out: GI
[32] = Growth inhibition of human COLO205 cells after 48 hrs by sulforhodamine B assay; format: functional; settings: COLO 205, 48 h
MDA-MB-468 [33] = assay: Growth inhibition of human MDA-MB-468 cells at 10 uM after 48 hrs by sulforhodamine B assay; format: functional; settings: MDA-MB-468, 48 h, read-out: GI
[34] = Growth inhibition of human HOP62 cells after 48 hrs by sulforhodamine B assay; format: functional; settings: HOP-62, 48 h
[35] = Growth inhibition of human HOP62 cells at 10 uM after 48 hrs by sulforhodamine B assay; format: functional; settings: HOP-62, 48 h, read-out: GI
A549 = assay: Growth inhibition of human A549/ATCC cells at 10 uM after 48 hrs by sulforhodamine B assay; format: functional; settings: A549, 48 h, read-out: GI
[36] = Growth inhibition of human HCT15 cells after 48 hrs by sulforhodamine B assay; format: functional; settings: HCT-15, 48 h
[37] = Growth inhibition of human SF295 cells at 10 uM after 48 hrs by sulforhodamine B assay; format: functional; settings: SF-295, 48 h, read-out: GI
HT-29 [38] = assay: Antiproliferative activity against human HT-29 cells at 10 uM after 72 hrs by MTS assay; format: functional; settings: HT-29, 72 h
[39] = Growth inhibition of human DU145 cells after 48 hrs by sulforhodamine B assay; format: functional; settings: DU-145, 48 h
HUVEC [40] = assay: Cytotoxicity against HUVEC assessed as inhibition of cell proliferation after 72 hrs by MTS assay; format: cell-based; settings: Homo sapiens
HT-29 [41] = assay: Growth inhibition of human HT-29 cells at 10 uM after 48 hrs by sulforhodamine B assay; format: functional; settings: HT-29, 48 h, read-out: GI
A498 [42] = assay: Growth inhibition of human A498 cells after 48 hrs by sulforhodamine B assay; format: functional; settings: A498, 48 h

With `COc1ccc(-c2nnc3n(C)c(=O)c4ccccc4n23)cc1O` the Activity (HUVEC [1]) was “Non-toxic”, the GI50 [2] was 0.062 µM and the GI50 (NCI-H522 [3]) was 0.031 µM. For the same compound, the growth at 10 µM [4] was 19%, the GI50 (MCF7 [5]) was 0.048 µM and the GI50 (K562 [6]) was 0.04 µM. The growth at 10 µM (NCI-H522 [7]) was 5%, the GI50 (MDA-MB-435 [8]) was 0.023 µM and the inhibition of growth at 10 µM [9] was 73%. The GI50 [10] was 0.064 µM, the inhibition of growth at 10 µM (K562 [11]) was 92% and the GI50 [12] was 0.045 µM. For the same compound, the GI50 [13] was 1.22 µM, the GI50 [14] was 0.041 µM and the Activity (HUVEC [15]) was “Dose-dependent effect”. For the same compound, the GI50 (SR) was 0.031 µM, the inhibition of growth at 10 µM [16] was 100% and the GI50 (MDA-MB-468 [17]) was 4.33 µM. It also gave an inhibition at 0.01 µM (HUVEC [18]) of 12%, an inhibition of growth at 10 µM [19] of 83% and a GI50 (HT-29 [20]) of 4.31 µM. It also gave an inhibition of growth at 10 µM (MDA-MB-435 [21]) of 100%, an IC50 (Tubulin) of 0.15 µM and an inhibition of growth at 10 µM [22] of 81%. For the same compound, the inhibition of growth at 10 µM (A498 [23]) was 66%, the inhibition of growth at 10 µM (SK-MEL-5) was 75% and the inhibition of growth at 10 µM (MCF7 [24]) was 85%. The growth at 10 µM [25] was 16%, the inhibition of growth at 10 µM [26] was 85% and the inhibition of growth at 10 µM (U-251 [27]) was 82%. For the same compound, the inhibition of growth at 10 µM [28] was 86%, the inhibition of growth at 10 µM [29] was 66% and the GI50 (U-251 [30]) was 0.125 µM. It also gave an inhibition of growth at 10 µM (NCI-H522 [31]) of 100%, a GI50 [32] of 3.82 µM and an inhibition of growth at 10 µM (MDA-MB-468 [33]) of 70%. For the same compound, the GI50 [34] was 0.048 µM, the inhibition of growth at 10 µM [35] was 90% and the inhibition of growth at 10 µM (A549) was 82%. The GI50 [36] was 0.052 µM, the inhibition of growth at 10 µM [37] was 93% and the inhibition at 10 µM (HT-29 [38]) was 71%. The GI50 [39] was 2.36 µM, the IC50 (HUVEC [40]) was 2.48 µM and the inhibition of growth at 10 µM (HT-29 [41]) was 81%. It also gave a GI50 (A498 [42]) of 6.42 µM.
